Read-outs that look alike come from different tables or passages of the source.
How the values were obtained:
[1] = Steady-state PK in KPC mice fed metarrestin-infused chow; type: in vivo; conditions: for Kp / AUC0-24hr Ratio (Tissue/Plasma): 10 mg/kg/day; for Kp / Cmax / Tmax / AUC0-24hr Ratio (Tissue/Plasma): day 10, chow; for Kp: read-out: AUC0-24hr Ratio (Tissue/Plasma); for concentration at 0 h / concentration at 3 h / concentration at 6 h / concentration at 9 h / concentration at 12 h / concentration at 15 h / concentration at 24 h: day 10, 10 mg/kg/day (70 ppm) chow; for Cmax / Tmax: po
[2] = test system: FOXO6 mRNA; assay: FOXO6 mRNA expression in KPC tumors (RNA-seq, qRT-PCR); type: in vivo, KPC mice; conditions: vs intratumor exposure
Description: Pancreas cancer tissues samples or adjacent, uninvolved normal pancreas from vehicle or metarrestin-treated KPC animals collected at 0, 3, and 9 h after last dose of 25 mg/kg metarrestin were homogenized in PureLink Lysis Buffer (PureLink RNA Mini Kit, ThermoFisher Scientific Waltham, MA) at 4 °C using a TissueLyser II bead mill (Qiagen, Valencia, CA, manufactured by Retsch, Newtown, PA). Total RNA was isolated using the Life Technologies PureLink® RNA Mini Kit, quantified on a NanoDrop 1000 spectrophotometer (ThermoFisher Scientific, Waltham, MA). […]
Total RNA libraries were prepared using the Illumina TruSeq® Stranded Total RNA LT (with Ribo-Zero™Human/Mouse/Rat) kit according the manufacturer’s instructions. […] Sequencing output ranged from 89 to 132 million reads per sample. Adapter trimming and base filtering was done using Trimmomatic software version 0.3, and the trimmed reads were aligned to mouse reference genome (GRCm38/mm10) and Ensembl annotation (version 70) using TopHat2 version 2.0.8.
A total of 450 ng of total RNA was used for single-strand complementary DNA synthesis using a SuperScript III First-Strand kit (Invitrogen, Carlsbad, CA). […] Reaction products were read in a Bio-Rad CFX96 Touch real-time PCR detection system (Bio-Rad Laboratories, Hercules, CA). […]

[3] = KPC, mouse, plasma, oral, read-out: Plasma concentration
[4] = KPC, mouse, liver, target dose 10 mg/kg/day
[5] = KPC, mouse, plasma, target dose 10 mg/kg/day
[6] = KPC, mouse, spleen, target dose 10 mg/kg/day
[7] = KPC, mouse, tumor, target dose 10 mg/kg/day
[8] = KPC, mouse, tumor, oral, read-out: Tumor concentration

Question: With `N=c1c2c(-c3ccccc3)c(-c3ccccc3)n(Cc3ccccc3)c2ncn1[C@H]1CC[C@H](O)CC1` [metarrestin, Trans-4-(7-benzyl-4-imino-5,6-diphenyl-4,7-dihydro-3H-pyrrolo[2,3-d]pyrimidin-3-yl) cyclohexanol] as the compound, how does the “intratumor AUC0–24h” value ([1]; 10 mg/kg PO chow) read?
Answer: 80,600 h ng/mL

Question: And the “intratumor AUC0–24h” value ([1]; 10 mg/kg PO steady-state chow)?
Answer: 96,100 h ng/mL

Question: What about the “intratumor AUC levels” value ([1]; 10 mg/kg dosing with solid or liquid formulations) of the same compound?
Answer: > 80,000 ng h/mL

Question: What about the Kp ([1]; KPC, mouse, liver, oral, liver/plasma, target dose 10 mg/kg/day) of the same compound?
Answer: > 20

Question: What about the AUC(0-t) ([1]; KPC, mouse, oral, plasma, day 10, chow 70 ppm, target dose 10 mg/kg/day, read-out: AUC0-24hr) of the same compound?
Answer: 4160 ng·h/mL

Question: What about the Kp ([1]; KPC, mouse, pancreatic tumor, oral, tumor/plasma, target dose 10 mg/kg/day) of the same compound?
Answer: > 20

Question: And the concentration at 0 h [1, 3]?
Answer: 0.46 µM

Question: And the concentration at 3 h [1, 3]?
Answer: 0.33 µM

Question: And the concentration at 6 h [1, 3]?
Answer: 0.3 µM

Question: And the concentration at 9 h [1, 3]?
Answer: 0.5 µM

Question: What about the concentration at 12 h [1, 3] of the same compound?
Answer: 0.43 µM

Question: What about the concentration at 15 h [1, 3] of the same compound?
Answer: 0.36 µM

Question: What about the concentration at 24 h [1, 3] of the same compound?
Answer: 0.27 µM

Question: What about the Cmax [1, 4] of the same compound?
Answer: 7250 ng/mL

Question: And the Tmax [1, 4]?
Answer: 12 h

Question: And the Cmax [1, 5]?
Answer: 237 ng/mL

Question: What about the Tmax [1, 5] of the same compound?
Answer: 9 h

Question: And the Cmax [1, 6]?
Answer: 5840 ng/mL

Question: And the Tmax [1, 6]?
Answer: 15 h

Question: What about the Cmax [1, 7] of the same compound?
Answer: 5100 ng/mL

Question: What about the Tmax [1, 7] of the same compound?
Answer: 9 h

Question: What about the Kp ([1]; KPC, mouse, spleen, oral, spleen/plasma, target dose 10 mg/kg/day) of the same compound?
Answer: > 20

Question: What about the concentration at 0 h [1, 8] of the same compound?
Answer: 7.9 µM

Question: What about the concentration at 3 h [1, 8] of the same compound?
Answer: 10.3 µM

Question: And the concentration at 6 h [1, 8]?
Answer: 8 µM

Question: And the concentration at 9 h [1, 8]?
Answer: 10.8 µM

Question: What about the concentration at 12 h [1, 8] of the same compound?
Answer: 10.7 µM

Question: What about the concentration at 15 h [1, 8] of the same compound?
Answer: 7.2 µM

Question: What about the concentration at 24 h [1, 8] of the same compound?
Answer: 6.7 µM

Question: What about the “AUC0-24hr Ratio (Tissue/Plasma)” value ([1]; liver/plasma, target dose 10 mg/kg/day) of the same compound?
Answer: 37

Question: And the AUC0-24hr ([1]; liver, day 10, chow 70 ppm, target dose 10 mg/kg/day)?
Answer: 153000 ng●hr/mL

Question: What about the “AUC0-24hr Ratio (Tissue/Plasma)” value ([1]; spleen/plasma, target dose 10 mg/kg/day) of the same compound?
Answer: 26

Question: And the AUC0-24hr ([1]; spleen, day 10, chow 70 ppm, target dose 10 mg/kg/day)?
Answer: 109000 ng●hr/mL

Question: And the “AUC0-24hr Ratio (Tissue/Plasma)” value ([1]; tumor/plasma, target dose 10 mg/kg/day)?
Answer: 23

Question: What about the AUC0-24hr ([1]; tumor, day 10, chow 70 ppm, target dose 10 mg/kg/day) of the same compound?
Answer: 96100 ng●hr/mL

Question: And the “FOXO6 mRNA expression in KPC tumors” value [2]?
Answer: Dose-dependent normalization
